The values that follow come from patent US10508285B2, “Method for screening of genes conferring increased tolerance to herbicides” (priority 2014, dated 2019).

The test system of this experiment is Protoporphyrinogen IX Oxidase (PPO) R128L. The format is cell-based, Amaranthus tuberculatus.

Take `C#CCN1C(=O)C(F)(F)Oc2cc(F)c(-n3c(=O)n(C)c(=S)n(C)c3=O)cc21` [BAS 850H]: the Tolerance factor is listed as 28.7.
The figure for `CC(C)N(C)S(=O)(=O)NC(=O)c1cc(-n2c(=O)cc(C(F)(F)F)n(C)c2=O)c(F)cc1Cl` [Saflufenacil] is 170.
